From US20150202179A1, “FATTY ACID DERIVATIVES FOR USE IN A METHOD OF TREATING DEPRESSION AND ASSOCIATED CONDITIONS” (YISSUM RESEARCH DEVELOPMENT COMPANY OF THE HEBREW …, priority 2012, published 2015)

Legend:
[1] = Tail Suspension Test, separated BALB/c mice (model for depression); format: in vivo; details: compounds 1 mg/kg i.p., imipramine 10 mg/kg i.p.; day 7; in relation to vehicle
Source text: (§1) Tail suspension test (TST): Animals are suspended upside down by adhesive tape placed 1 cm from the tail tip. The elevation of the animal is 50 cm from the nearest surface. […] Statistical analysis compares the magnitude of immobility (in seconds) between different treatment groups. In this test, antidepressants characteristically cause an increase of the time fraction spent by the animal as active at the expense of the inactivity period.
50, 2 month old female BALB/c mice were separated (each mouse in a different cage) for 9 days period (a model for depression). On days 7, 8, 9, 34-40 mice were administered with either vehicle or compounds X, 12 and 15 (1 mg/kg i.p.) or imipramine 10 mg/kg (anti-depressant) i.p. and tested in the Tail suspension test on day 7 of the experiment (10 mice per group).

[2] = system: p-SAPK/JNK; assay: p-SAPK/JNK levels in the hypothalamus; format: in vivo, BALB/c mice; details: FIG. 16
Source text: (§2) 50, 2 month old female BALB/c mice, 10 mice per group, on ad libitum diet were separated (each mouse in a different cage) for 9 days (Separation Stress, a model for depression).

[3] = system: Norepinephrine (NE) levels; assay: Norepinephrine (NE) determination in brain tissue by HPLC with electrochemical detection; format: in vivo, mice; details: for NE: ng/g wet tissue +/− SEM; for norepinephrine levels in the hippocampus vs. control / norepinephrine levels in the hypothalamus vs. control: result in words
Experimental: (§3) Solution of DHBA as internal standard in the concentration of: 1 μg/ml in 0.1M perchloric acid, were prepared. Standard solutions of NE and 5HT in the concentration of 1-0.1 μg/ml in 0.1M perchloric acid were prepared.
(§4) Tissues (hypothalamus and hippocampus) obtained from 6-8 mice were dissected on ice surface and kept at −80 C. Hypothalamus (HT) or hippocampus (HC) from 1 mice were weighted (weight of HT −10-20 mg, HC 30-40 mg) and placed in eppendorf micro-centrifuge tube, 1.5 ml. To each tube was added 120-160 μl of ice cold solution of Perchloric acid and DHBA, homogenized in ice bath on Sonics vibra cell, 3×20 sec., 0.4 watts and centrifuged at 14,000×g at 4° C. 10 min. Supernatant gained was stored in ice before analysis.
(§5) The HPLC system consisted of Jasco PU-980 pump, Jasco AS-950-10 autosampler cooled at 4° C., H3 ODS-125A 3 μm 125 mm×4.6 mm i.d. analytical column (Hichrom, UK) were used. Electrochemical detector Coulochem ESA 5100A with analytical cell model 5011 was used for control detector voltage and record the current. Working electrode was set at potential +350 mV. Control and data collection/processing were handled through Borwin chromatography software.
(§6) The mobile phase composition: A stock buffer was prepared as follows: 20 mM sodium dihydrogenorthophosphate, EDTA 3 mg/l, 1-heptanesulfonic acid 1 g/l were dissolved in 1 liter deionized distilled water and buffered to pH 3.7 using concentrated phosphoric acid. To prepare the mobile phase buffer was mixed with acetonitrile (Baker HPLC analyzed) in the ratio 85:15 (v/v), filtered through a 0.2 μm membrane filter and degassed under vacuum after mixing. Mobile phase flow rate 1 ml/min. Injection volume 20 μl, retention time for DHBA 4.2 min., norepinephrine—3.1 min., 5HT 8.6 min. For calibration curve 1 ug/ml solution of DHBA together with 1.0-0.1 μg/ml solutions of 5HT and NE were used. The ratio between 5HT or NE and DHBA used to calculate the level of 5HT and NE in the sample. Date are given in ng/g wet tissue +/−SEM.

[4] = system: serotonin (5HT) levels; assay: Serotonin (5HT) determination in brain tissue by HPLC with electrochemical detection; format: in vivo, mice; details: for 5HT: ng/g wet tissue +/− SEM; for 5HT levels in the hippocampus vs. control / 5HT levels in the hypothalamus vs. control: result in words
Experimental: as §3, §4, §5, §6

[5] = Forced Swim Test (FST), separated BALB/c mice; format: in vivo; details: compounds 1 mg/kg i.p., imipramine 10 mg/kg i.p.; day 8; in relation to vehicle
Experimental: Forced swim test (FST): The animal is placed in a circular, transparent, plexiglass tank measuring 21 cm in diameter and 46 cm in height containing water 15 cm high, maintained at 23-25° C. […] Also measured is the latency period, the time elapsing, for each animal from immersion in the water tank until the first occurrence of immobility. Since climbing activity is minimal in mice, […].
(§7) 50, 2 month old female BALB/c mice, 10 mice per group, on ad libitum diet were separated (each mouse in a different cage) for 9 days (Separation Stress, a model for depression). On the 7, 8, 9, 34-40 days mice were administered with either vehicle or compounds x, 12 and 15 (1 mg/kg i.p.) or imipramine 10 mg/kg (antidepressant) i.p. and tested in the forced swim test (FST) on day 8.

[6] = system: leptin; assay: Leptin levels in the hypothalamus; format: in vivo, BALB/c mice; details: FIG. 15
Source text: as §2

[7] = Tail Suspension Test, compound X dose study; format: in vivo, BALB/c mice; details: 10 mg/kg i.p.; day 23; more than imipramine and other concentrations
Source text: as §1
50, 2 month old BALB/c mice, 10 mice per group, on ad libitum diet were divided to 5 experimental groups with equal weight. On the 2, 3, 4, 5, 9, 11, 16, 18, 23, 25, 29, 31 days mice were administered with either vehicle or compound x 0.1, 1, 10 mg/kg i.p. or imipramine 10 mg/kg.

[8] = system: NPY protein; assay: NPY protein expression by western blot; format: in vivo, BALB/c mice; details: FIG. 13
Experimental: as §7, with “X,” for “x,”, “(antidepressant).” for “(antidepressant) i.p. and tested in the forced swim test (FST) on day 8.”

With CCCCCCCC/C=C\CCCCCCCC(=O)N[C@H](CO)C(C)C [Compound 1, oleoyl-L-valinol amide] the “activity in Tail Suspension Test” value [1] was “significantly enhanced activity”, the “p-SAPK/JNK levels in the hypothalamus” value [2] was “significant decrease” and the “NE” value ([3]; Hippocampus) was 283.28 ± 24 ng/g. For the same molecule, the “NE” value ([3]; Hypothalamus) was 1090 ± 10.4 ng/g, the “norepinephrine levels in the hippocampus vs. control” value [3] was “significantly enhanced” and the “norepinephrine levels in the hippocampus vs. control” value ([3]; listed as X) was “increase significantly”. The “norepinephrine levels in the hypothalamus vs. control” value [3] was “significantly enhanced”, the “norepinephrine levels in the hypothalamus vs. control” value ([3]; listed as X) was “increased significantly” and the “5HT” value ([4]; Hippocampus) was 342.2 ± 33 ng/g. The “5HT” value ([4]; Hypothalamus) was 854.4 ± 16.8 ng/g, the “5HT levels in the hippocampus vs. control” value [4] was “significantly enhanced” and the “5HT levels in the hippocampus vs. control” value ([4]; listed as X) was “increased significantly”. For the same molecule, the “5HT levels in the hypothalamus vs. control” value [4] was “significantly enhanced”, the “5HT levels in the hypothalamus vs. control” value ([4]; listed as X) was “increased significantly” and the “swimming activity in forced swim test” value [5] was “significantly enhanced swimming activity”. For the same molecule, the “leptin levels in the hypothalamus” value [6] was “tendency to increase”, the “motor activity in Tail Suspension Test” value [7] was “improved significantly motor activity” and the “NPY protein expression in the hypothalamus” value [8] was “decrease significantly”.
